Measurements as given in patent US10660933B2, “Compositions and methods for inhibition of bacterial infections in human endocervix” (priority 2015, dated 2020).

Tests used:
Format in all cases: cell-based, human
[1] = tested on: phosphorylated myosin light chain (pMLC); assay: pMLC (active NMII) redistribution in Ng-inoculated polarized T84 cells (3D-CFM); conditions: for accumulation of pMLC at Ng adherent sites / apical:lateral FIR of pMLC: polarized T84, Ng 6 h; for junction:non-junction FIR of pMLC: polarized T84, Ng 6 h (Y27632: MS11ΔOpa); for junction:non-junction FIR of pMLC / apical:lateral FIR of pMLC: ML-7 10 μM, PIK 100 μM, Y27632 10 μM, 2APB 10 μM, BAPTA 50 μM
Method: Ng induce and Opa suppresses the redistribution of active non-muscle myosin II in polarized and endocervical epithelial cells. […] We examined the cellular distribution of active NMII after 6-h incubation with Ng, using antibody specific for phosphorylated myosin light chain (pMLC) and 3D-CFM. In uninfected polarized T84 (FIGS. 5A and 5C) and HEC-1-B cells (FIG. 10), pMLC was primarily localized at the apical junction. The polarized distribution of pMLC at the apical surface was quantified by the FIR of pMLC at the apical to the lateral (Apical:Lateral) membrane areas in individual cells using CFM images scanning across the apical and basolateral surfaces (FIGS. 5A and 5B). The polarized distribution pMLC at the apical junction was quantified by the FIR of pMLC at the junction to non-junction (Junction:Non-junction) areas of the apical region using CFM images scanning through the apical junction (FIGS. 5C and 5D). The apical inoculation of MS11Opa+ and MS11ΔOpa caused significant increases in apical:lateral FIR in both polarized T84 (FIGS. 5A and 5B) and HEC-1-B cells (FIG. 10), compared to the no Ng control. There were also significant increases in the junction:non-junction FIR in infected polarized T84 cells, compared to non-infected cells (FIGS. 5C and 5D). […] We further noticed that NMII at the apical surface appeared to accumulate at Ng adherent sites (FIG. 5A, middle panels, arrows).
(§1) Immunofluorescence analysis of polarized epithelial cells. Cells were pretreated with or without NMII kinase inhibitors, Y27632 (10 μM, EMD Millipore), ML-7 (10 μM, EMD Millipore) and PIK (100 μM) or Ca2+ inhibitors, 2APB (10 μM, EMD Millipore) and BAPTA (50 μM, EMD Millipore) for 1 h, and incubated with Ng in the presence or absence of the inhibitors for 6 h. Cell were washed and fixed with 4% paraformaldehyde, permeabilized with 1% Triton X100, and stained with anti-E-cadherin (BD Bioscience), anti-pMLC (Cell Signaling Technology, Carlsbad, Calif.), anti-Ng antibodies, and DAPI for nuclei. Cells were analyzed by CFM. Images were acquired as Z-series of 0.37 μm slices, and 3D composites obtained. Epithelial exfoliation will be quantified using xz images as described for the tissue explants. The distribution of E-cadherin and pMLC was quantitatively analyzed by measuring the FIR at the apical junctional to the cytoplasmic area (from xy images) or at the apical to lateral surface area (from xz images) in individual cells.

[2] = tested on: polarized T84 cells; assay: Exfoliation of polarized T84 cells treated with inhibitors alone, without Ng; conditions: no Ng inoculation, 6 h
Method: Polarized T84 cells were treated with inhibitors for 6 h, fixed, stained to visualize the cell nuclei, and imaged by 3D-CFM. The percentage of cell moving above the epithelial monolayer (dash lines) was determined from three independent experiments. Scale bar, 5 μm. *p≤0.05.
as §1

[3] = tested on: E-cadherin; assay: E-cadherin distribution at the apical junction of Ng-inoculated polarized T84 cells; conditions: polarized T84, Ng 6 h; ML-7 10 μM, 2APB 10 μM, Y27632 10 μM
From the text: Ng-induced junction disassembly requires NMII activation and Ca^2+ flux but is suppressed by Opa. The linkage between the efficiency of Ng penetration into the epithelium with Ng induced epithelial exfoliation and apical junction disruption shown here and previously implicate Ng induced junction disruption as an underlying cause of epithelial exfoliation. To test this hypothesis, we determined whether Opa expression and the MLCK and Ca^2+ inhibitors, which all inhibited Ng induced epithelial exfoliation, also prevent Ng from disrupting the apical junction. The structural integrity of the apical junction was evaluated by analyzing the distribution of E-cadherin using immunofluorescence (IFM) and 3D-CFM and quantifying the fluorescence intensity ratio (FIR) of E-cadherin at the cytoplasm to that at the apical junction. In polarized T84 cells that were not inoculated with Ng, E-cadherin staining was primarily localized at the apical junction (FIG. 4A, top panels). […]
Immunofluorescence analysis of polarized epithelial cells. […] Cells were analyzed by CFM. […] Epithelial exfoliation will be quantified using xz images as described for the tissue explants. The distribution of E-cadherin and pMLC was quantitatively analyzed by measuring the FIR at the apical junctional to the cytoplasmic area (from xy images) or at the apical to lateral surface area (from xz images) in individual cells.

[4] = tested on: polarized T84 cells; assay: Fence function of the apical junction (CellMask) in polarized T84 cells; conditions: polarized T84, Ng-inoculated; ML-7 10 μM, 2APB 10 μM
Method: Ng-induced junctional disassembly leads to a significant increase in the lateral diffusion between the apical and basolateral membrane but not in the permeability of epithelial monolayers. To determine whether Opa, MLCK and Ca^2+ flux are involved in this functional alteration of the apical junction, we stained the basolateral surface of polarized T84 epithelial cells exclusively with CellMask dye for […], after apical incubation with fluorescently labeled Ng for 6 h. The appearance of basolaterally stained CellMask dye in the apical membrane indicates a decrease in the fence function of the apical junction (FIG. 4D). […] The percentage of cells with basolaterally labeled CellMask reaching the apical surface increased to 19.4% when MS11Opa+ was inoculated and to 62.2% when MS11ΔOpa was inoculated (FIGS. 4E and 4F).
Fence functional of the apical junction. Polarized T84 cells were incubated with Ng apically for 6 h. Then the cells were incubated with the CellMask dye (5 μg/ml, Life Technologies) in the basolateral chamber only for 15 min, and xz images were acquired using Leica TCS SP5X confocal microscope (Leica Microsystems, Buffalo Grove, Ill.). The number of epithelial cells displaying CellMask staining at the apical membrane was countered visually as the percentage of the total number of epithelial cells in each randomly acquired image.

[5] = tested on: polarized T84 cells; assay: Ng-induced exfoliation of polarized T84 monolayers (3D-CFM); conditions: MS11ΔOpa, 6 h; inhibitor 1 h before and during; ML-7 10 μM, PIK 100 μM, Y27632 10 μM, 2APB 10 μM
From the text: To quantify epithelial exfoliation, the number of Ng associated cells localized on the top of the epithelial monolayer (exfoliated) and the total number of Ng associated epithelial cells was counted by visual inspection in each randomly acquired image, to determine the percentage of exfoliated cells. To estimate the level of Ng penetration into the subepithelium, the number of non-exfoliated epithelial cells (in clearly visible epithelial monolayers) with basal Ng staining and the total number of Ng associated epithelial cells were visually counted to calculate the percentage of infected epithelial cells with Ng penetration into the basolateral side. To evaluate the disruption of the apical junction, the number of Ng associated epithelial cells that lost continuously apical staining of the junctional protein ZO1 and the total number of Ng associated epithelial cells were visually counted to calculate the percentage of Ng associated epithelial cells with apical junction disassembly. To quantify the redistribution of pMLC, the fluorescence intensity ratios (FIR) of pMLC staining at the apical to lateral in individual epithelial cells were determined using average FI as previously described.
as §1

SMILES	accumulation of pMLC at Ng adherent sites [1]	junction:non-junction FIR of pMLC [1]	apical:lateral FIR of pMLC [1]	epithelial exfoliation with inhibitors alone [2]	punctuate cytoplasmic staining and cytoplasm:junction FIR of E-cadherin [3]	percentage of epithelial cells with CellMask staining leaked to the apical surface [4]	exfoliation of MS11ΔOpa-infected epithelial cells from T84 monolayers [5]
NCCOB(c1ccccc1)c1ccccc1 [2APB]	decreased	decreased	decreased	did not affect epithelial exfoliation	decreased the punctuate staining of E-cadherin in the cytoplasm and the cytoplasm:junction FIR of E-cadherin to or below the control level	significantly lowered the percentage of epithelial cells with the CellMark staining leaked to the apical surface	reduced the exfoliation of polarized T84 cells to the level similar to ML-7 and PIK
O=S(=O)(c1cccc2c(I)cccc12)N1CCCNCC1 [ML-7]	significantly reduced	significantly reduced	significantly reduced	did not affect epithelial exfoliation	decreased the punctuate staining of E-cadherin in the cytoplasm and the cytoplasm:junction FIR of E-cadherin to or below the control level	significantly lowered the percentage of epithelial cells with the CellMark staining leaked to the apical surface	reduced the exfoliation
